Laboratory results published in PubChem BioAssay AID1963863 (Molecular Pharmacology Branch, DTP, NCI, 2024).

System: 931267-113-T-J1-PDC KRAS spheroid with HUVEC/MSC, viability
Test: Anticancer human tumor 931267-113-T-J1-PDC patient-derived colon adenocarcinoma cell line growth inhibition [KRAS2]
Conditions: for IC50: curve of first compound; for viability, T/C: stronger effect = lower value
From the text: Multicellular complex tumor spheroid response to RAS pathway inhibitors in combination with a targeted agents in patient-derived cell lines with oncogenic KRAS variants from multiple cancer types
A high-throughput screen of multi-cell type tumor spheroids was designed to identify active combinations of targeted small molecules and KRAS pathway inhibitors. Complex spheroids include a stromal component modeled by human endothelial cells (HUVEC) and fibroblasts modeled by human mesenchymal stem cells (MSCs). The concentration ranges selected for each drug and investigational agent were based upon clinically achievable concentrations if the clinical Cmax of the agent was known.
Compounds. The drugs and investigational agents: BI-3406 (NSC825286), BAY-293 (NSC824723), batoprotafib (TNO155; NSC825523), sotorasib (AMG 510; NSC818433), MRTX1257 (NSC819558), elimusertib (BAY 1895344; NSC800525), molibresib (GSK525762; NSC774829), temuterkib (LY3214996; NSC803410), venetoclax (NSC766270), alisertib (NSC759677), olaparib (NSC753686), talazoparib (NSC767125), erdafitinib (NSC781556), ipatasertib (NSC767898), cabozantinib (NSC761068), nintedanib (NSC756659), abemaciclib (NSC768073), docetaxel (NSC628503), trametinib (NSC758246), and sapanisertib (NSC764658) were obtained from the National Cancer Institute (NCI) Developmental Therapeutics Program Chemical Repository. The FDA-approved anticancer drug set is available from the Developmental Therapeutics Program. […] The stock solutions were prepared in dimethyl sulfoxide (DMSO, Sigma-Aldrich, St. Louis, MO, cat. D2650) at 800-fold the tested concentration and stored at -70 degrees C prior to their use. All drugs and investigational agents were tested over a range starting from a high concentration at or near the clinical Cmax and decreasing in half-log increments. If the clinical Cmax for an agent had not been determined, the highest concentration tested was 10 microM.
Cell Culture. All cells were maintained in an incubator at 37 degrees C and 5% CO2 with 95% humidity. The PDC lines were cultured according to standard operating procedures established by the NCI PDMR (https://pdmr.cancer.gov/sops/default.htm). Briefly, all PDCs were thawed and cultured in Matrigel-coated flasks prepared with a working solution of 1X Ham's F-12 nutrient mix, without supplementation (Invitrogen, Waltham, MA, cat. 11765054), 100 U/mL penicillin-streptomycin (Invitrogen, cat. 15140122), and 2.5% Matrigel (Corning Inc., Corning, NY, cat. 354248) for the first three passages. All PDCs were cultured in complete DMEM/F-12 media containing advanced DMEM/F-12 (Invitrogen, cat. 12634028), 4.9% defined fetal bovine serum, heat inactivated (HyClone Laboratories Inc., Logan, UT, cat. SH30070.03HI), 389 ng/mL hydrocortisone (Sigma-Aldrich, cat. H4001), 9.7 ng/mL human EGF recombinant protein (Invitrogen, cat. PHG0313), 23.4 microg/mL adenine (Sigma-Aldrich, cat. A2786), 97.3 U/mL penicillin-streptomycin (Invitrogen, cat. 15140122), 1.9 mM L-glutamine (Invitrogen, cat. 25030081), and 9.7 microM Y-27632 dihydrochloride (Tocris Bioscience, Bristol, United Kingdom, cat. 1254). The PDCs were cultured in complete DMEM/F12 media without 9.7 microM Y-27632 dihydrochloride for at least two passages prior to the screen. The established cell line HOP-62 was cultured in RPMI 1640 medium, HEPES (Invitrogen, cat. 22400105) with 10% defined fetal bovine serum (HyClone Laboratories Inc., cat. SH30070.03) and 2 mM L-glutamine (Invitrogen, cat. 25030081). The pooled donor HUVEC were cultured in endothelial cell growth medium 2 (PromoCell, Heidelberg, Germany, cat. C-22011) and the hMSC were cultured in mesenchymal stem cell growth medium 2 (PromoCell, cat. C-28009). For all experiments, HUVEC and hMSC were used at passages </=5, while the malignant cell lines were used at passages </=15. […]

[1] = second compound 0.1 µM, first compound 0.0316 µM
[2] = second compound 0.316 µM, first compound 0.0316 µM
[3] = second compound 1 µM, first compound 0.0316 µM
[4] = second compound 3.16 µM, first compound 0.0316 µM
[5] = second compound 10 µM, first compound 0.0316 µM
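Further: compound exposure lasted 7 days before the readout.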
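Wherever viability, T/C is given: 100% = DMSO vehicle control viability.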

COC(=O)c1ccc2c(C(=Nc3ccc(N(C)C(=O)CN4CCN(C)CC4)cc3)c3ccccc3)c(O)[nH]c2c1 + CNCc1ccccc1-c1csc(C(C)Nc2nc(C)nc3cc(OC)c(OC)cc23)c1
IC50 (second compound 0.1 µM): 480 nM
IC50 (second compound 0.316 µM): 356 nM
IC50 (second compound 1 µM): 452 nM
IC50 (second compound 3.16 µM): < 31.6 nM
IC50 (second compound 10 µM): < 31.6 nM
viability, T/C [1]: 65.7%
viability, T/C (second compound 0.1 µM, first compound 0.1 µM): 81%
viability, T/C (second compound 0.1 µM, first compound 0.316 µM): 58%
viability, T/C (second compound 0.1 µM, first compound 1 µM): 31%
viability, T/C (second compound 0.1 µM, first compound 3.16 µM): 0.36%
viability, T/C (second compound 0.1 µM, first compound 10 µM): 0.19%
viability, T/C [2]: 76.5%
viability, T/C (second compound 0.316 µM, first compound 0.1 µM): 86.1%
viability, T/C (second compound 0.316 µM, first compound 0.316 µM): 55.6%
viability, T/C (second compound 0.316 µM, first compound 1 µM): 2.09%
viability, T/C (second compound 0.316 µM, first compound 3.16 µM): 0.23%
viability, T/C (second compound 0.316 µM, first compound 10 µM): 0.33%
viability, T/C [3]: 84.5%
viability, T/C (second compound 1 µM, first compound 0.1 µM): 99.3%
viability, T/C (second compound 1 µM, first compound 0.316 µM): 72%
viability, T/C (second compound 1 µM, first compound 1 µM): 2.29%
viability, T/C (second compound 1 µM, first compound 3.16 µM): 0.7%
viability, T/C (second compound 1 µM, first compound 10 µM): 0.32%
viability, T/C [4]: 0.3%
viability, T/C (second compound 3.16 µM, first compound 0.1 µM): 0.33%
viability, T/C (second compound 3.16 µM, first compound 0.316 µM): 0.17%
viability, T/C (second compound 3.16 µM, first compound 1 µM): 0.16%
viability, T/C (second compound 3.16 µM, first compound 3.16 µM): 0.15%
viability, T/C (second compound 3.16 µM, first compound 10 µM): 0.2%
viability, T/C [5]: 0.24%
viability, T/C (second compound 10 µM, first compound 0.1 µM): 0.28%
viability, T/C (second compound 10 µM, first compound 0.316 µM): 0.13%
viability, T/C (second compound 10 µM, first compound 1 µM): 0.12%
viability, T/C (second compound 10 µM, first compound 3.16 µM): 0.14%
viability, T/C (second compound 10 µM, first compound 10 µM): 0.29%

CC(=O)Nc1cccc(-n2c(=O)n(C3CC3)c(=O)c3c(Nc4ccc(I)cc4F)n(C)c(=O)c(C)c32)c1 + COc1cc2nc(C)nc(NC(C)c3cc(N)cc(C(F)(F)F)c3)c2cc1OC1CCOC1
IC50 (second compound 0.1 µM): 10.3 nM
IC50 (second compound 0.316 µM): 5.76 nM
IC50 (second compound 1 µM): 9.82 nM
IC50 (second compound 3.16 µM): 7.73 nM
IC50 (second compound 10 µM): < 0.1 nM
viability, T/C (second compound 0.1 µM, first compound 0.0001 µM): 75.8%
viability, T/C (second compound 0.1 µM, first compound 0.000316 µM): 75.3%
viability, T/C (second compound 0.1 µM, first compound 0.001 µM): 77.1%
viability, T/C (second compound 0.1 µM, first compound 0.00316 µM): 72.5%
viability, T/C (second compound 0.1 µM, first compound 0.01 µM): 51%
viability, T/C [1]: 15.7%
viability, T/C (second compound 0.316 µM, first compound 0.0001 µM): 76.9%
viability, T/C (second compound 0.316 µM, first compound 0.000316 µM): 60.6%
viability, T/C (second compound 0.316 µM, first compound 0.001 µM): 64.8%
viability, T/C (second compound 0.316 µM, first compound 0.00316 µM): 51.3%
viability, T/C (second compound 0.316 µM, first compound 0.01 µM): 50%
viability, T/C [2]: 13.7%
viability, T/C (second compound 1 µM, first compound 0.0001 µM): 87%
viability, T/C (second compound 1 µM, first compound 0.000316 µM): 71.7%
viability, T/C (second compound 1 µM, first compound 0.001 µM): 73.8%
viability, T/C (second compound 1 µM, first compound 0.00316 µM): 66.1%
viability, T/C (second compound 1 µM, first compound 0.01 µM): 52.1%
viability, T/C [3]: 14.1%
viability, T/C (second compound 3.16 µM, first compound 0.0001 µM): 91.3%
viability, T/C (second compound 3.16 µM, first compound 0.000316 µM): 82.1%
viability, T/C (second compound 3.16 µM, first compound 0.001 µM): 75.1%
viability, T/C (second compound 3.16 µM, first compound 0.00316 µM): 59.5%
viability, T/C (second compound 3.16 µM, first compound 0.01 µM): 52%
viability, T/C [4]: 19.6%
viability, T/C (second compound 10 µM, first compound 0.0001 µM): 21.4%
viability, T/C (second compound 10 µM, first compound 0.000316 µM): 37.6%
viability, T/C (second compound 10 µM, first compound 0.001 µM): 20.4%
viability, T/C (second compound 10 µM, first compound 0.00316 µM): 2.31%
viability, T/C (second compound 10 µM, first compound 0.01 µM): 14.3%
viability, T/C [5]: 1.54%
